# Reference: patent publication US20250333745A1, “METHODS AND COMPOSITIONS FOR TREATMENT OF POLYCYSTIC KIDNEY DISEASE” (Regulus Therapeutics Inc., priority 2016, published 2025)
# Tests used:
# [1] = system: miR-17; test: microRNA polysome shift assay (miPSA), kidney target engagement; format: in vivo, mouse; design: miPSA Score Wild Type Mice / miPSA Score PKD Mice / miPSA displacement score (mean): scale not given here; conditions: for miPSA Kidney AUC (8 hours to 7 days) / Potency Kidney D7: wild-type mice, single s.c. dose 30 mg/kg; for Potency Kidney D7: day 7
# Description: (§1) In vivo potency was evaluated using the microRNA polysome shift assay (miPSA). This assay was used to determine the extent to which compounds directly engage the miR-17 target in the kidney in normal and PKD mice. The miPSA relies on the principle that active miRNAs bind to their mRNA targets in translationally active high molecular weight (HMW) polysomes, whereas the inhibited miRNAs reside in the low MW (LMW) polysomes. Treatment with anti-miR results in a shift of the microRNA from HMW polysomes to LMW polysomes. Thus, the miPSA provides a direct measurement of microRNA target engagement by a complementary anti-miR (Androsavich et al., Nucleic Acids Research, 2015, 44: e13).
# The miPSA was used to assess the potency of each compound, measured by the displacement score, in wild type and JCK mice. Tissue accumulation of anti-miR-17 compound was measured by extraction of compound using liquid-liquid extraction (LLE) and/or solid-phase extraction (SPE), followed by analysis of the identity and concentration of compound using ion-pairing-reversed-phase high performance liquid chromatography coupled with time-of-flight mass spectrometry (IP—RP-HPLC-TOF).
# Wild type mice were administered a single dose of 3 mg/kg for the miPSA analysis, and a single dose of 30 mg/kg for the tissue accumulation analysis. JCK mice were administered a single dose of 30 mg/kg for both the miPSA and tissue accumulation analyses. Kidney tissue was collected seven days following the administration of anti-miR-17 compound. […] A higher kidney-to-liver ratio is generally preferred for a disease where the primary site of action is the kidney.
# as §1, with “The” for “In vivo potency was evaluated using the”, “(miPSA),” for “(miPSA). This assay”, “identify” for “determine the extent to which”, “compounds that” for “compounds”, “engage” for “engage the”, “miR-17” for “miR-17 target”
# For this experiment, the PKD model selected was the JCK model, a mouse model of slowly progressing renal cystic disease associated with the same gene that causes human nephronophthisis type 9. Renal cysts in this mouse develop in multiple regions of the nephron.
# C57BL6 mice were treated with a single, subcutaneous dose of 0.3, 3, and 30 mg/kg of RG4326 or tool anti-miR-17 (described in Example 1). JCK mice were treated with a single, subcutaneous dose of 3, 30, and 100 mg/kg of RG4326 or tool anti-miR-17. PBS treatment was used as an additional control. At seven days post-treatment, mice were sacrificed, and kidney tissue was isolated for the miPSA. […] The displacement scores following treatment with RG4326 were greater than the displacement scores following treatment with the tool anti-miR-17 compound. The data for wild-type mice and JCK mice are also shown in FIG. 3A and FIG. 3B, respectively.
# Pharmacokinetic behavior was assessed by administering a single subcutaneous 30 mg/kg dose of RG4326 or tool anti-miR-17 compound to wild-type mice. At one hour, four hours, eight hours, one day, seven days, 14 days, 28 days and 56 days following the single injection, mice were sacrificed and the mean concentration of anti-miR compound in kidney and liver tissue was measured (ug/g) as described above. The area-under-curve (AUC) was calculated for kidney and liver tissue using the formula ug*h/g, where ug is the amount of oligonucleotide in the tissue, h is the timepoint of tissue collection in hours, and g is the weight of the tissue. The ratio of kidney AUC to liver AUC was determined. Kidney tissue was also processed to the miPSA, to determine target engagement for each compound in this study. […]
# [2] = system: miR-17; test: miR-17 luciferase reporter assay in HeLa cells; format: cell-based; conditions: for Luciferase Fold Derepression: mean
# Description: In vitro potency was evaluated using a luciferase reporter assay. A luciferase reporter plasmid for miR-17, with […] in the 3′-UTR of the luciferase gene. Compounds of longer lengths were selected if their maximum inhibition was greater than that of the tool anti-miR-17 compound. As shorter compounds, such as 9-mers, are typically not maximally active in the same assay conditions used for longer compounds, shorter compounds were selected based on maximum inhibition relative to appropriate control compounds. In this way, compounds that are diverse in both length and chemical composition were included in further testing.
# One assay employed was the luciferase assay. […] Accordingly, the luciferase assay transfection conditions were optimized for short anti-miR-17 compounds, so that the inhibitory activity of the compounds could be measured.
# The luciferase reporter plasmid for miR-17 contained a fully complementary miR-17 binding site in the 3′-UTR of the luciferase gene. HeLa cells were transfected with the microRNA mimic and its cognate luciferase reporter, followed by transfection with anti-miR-17 at doses of […], 3, 10, 30, 100, and 300 nM. At the end of the 24-hour transfection period, luciferase activity was measured. As shown in Table 2-1, RG4047, while not as potent as RG4326, inhibited miR-17 activity in a dose dependent manner. SD indicates standard deviation.
# Additional in vitro assays were conducted to further explore the potency of RG4326. A luciferase reporter assay was used to test the ability of RG4326 to inhibit the miR-17 family members miR-17, miR-20a, miR-93, and miR-106b. A luciferase reporter plasmid for each of miR-20a, miR-93, and miR-106b was constructed, with a fully complementary microRNA binding site in the 3′-UTR of the luciferase gene. HeLa cells were transfected with the microRNA mimic and its cognate luciferase reporter, followed by transfection with anti-miR-17 at a dose of 100 nm. […] As RG4326 is 100% complementary to the other miR-17 family members not tested, miR-20b and […], it is expected to inhibit these microRNAs as well.
# [3] = JCK mice, single subcutaneous 3 mg/kg, kidney, seven days
# [4] = JCK mice, single subcutaneous 30 mg/kg, kidney, seven days
# [5] = JCK mice, single subcutaneous 100 mg/kg, kidney, seven days
# [6] = Normal (C57BL6) mice, single subcutaneous 0.3 mg/kg, kidney, seven days
# [7] = Normal (C57BL6) mice, single subcutaneous 3 mg/kg, kidney, seven days
# [8] = Normal (C57BL6) mice, single subcutaneous 30 mg/kg, kidney, seven days
# [9] = 0.001 nM anti-miR-17, 24-hour transfection
# [10] = 3 nM anti-miR-17, 24-hour transfection
# [11] = 10 nM anti-miR-17, 24-hour transfection
# [12] = 30 nM anti-miR-17, 24-hour transfection
# [13] = 100 nM anti-miR-17, 24-hour transfection
# [14] = 300 nM anti-miR-17, 24-hour transfection
Compound,"miPSA displacement score (mean) [1, 3]","miPSA displacement score (mean) [1, 4]","miPSA displacement score (mean) [1, 5]","miPSA displacement score (mean) [1, 6]","miPSA displacement score (mean) [1, 7]","miPSA displacement score (mean) [1, 8]",miPSA Kidney AUC (8 hours to 7 days) [1],Potency Kidney D7 [1],"Luciferase Fold Derepression [2, 9]","Luciferase Fold Derepression [2, 10]","Luciferase Fold Derepression [2, 11]","Luciferase Fold Derepression [2, 12]","Luciferase Fold Derepression [2, 13]","Luciferase Fold Derepression [2, 14]","Mean luciferase fold derepression, miR-17 ([2]; anti-miR-17 at 100 nm)","miPSA Score PKD Mice ([1]; JCK mice, single dose 30 mg/kg, kidney, seven days)","miPSA Score Wild Type Mice ([1]; wild type mice, single dose 3 mg/kg, kidney, seven days)"
"5′-CTGCACTGTAAGCACTTTG-3′ (all phosphorothioate, sugars by position and methylation of C not given here; DNA, 2'-MOE and S-cEt sugars) [Tool anti-miR-17, reference compound]",0.97,1.67,2.08,1.51,2.05,2.77,296 Log2FC * h,0.047 Log2FC * g/ug,–,–,–,–,–,–,–,–,–
"COC1C(OP(=O)(S)OC[C@H]2O[C@@H](n3cnc4c(N)ncnc43)C(F)C2OP(=O)(S)OC[C@H]2O[C@@H](n3ccc(N)nc3=O)C(F)C2OP(=O)(S)OC[C@H]2O[C@@H](n3ccc(=O)[nH]c3=O)C(F)C2OP(=O)(S)OC[C@H]2O[C@@H](n3ccc(=O)[nH]c3=O)C(OC)C2OP(=O)(S)OC[C@]23O[C@@H](n4ccc(=O)[nH]c4=O)C(O[C@H]2C)C3OP(=O)(S)OC[C@]23O[C@@H](n4cnc5c(=O)[nH]c(N)nc54)C(O[C@H]2C)C3O)[C@@H](COP(=O)(S)OC2C3O[C@@H](C)[C@]2(COP(=O)(S)OC2C4O[C@@H](C)[C@]2(CO)O[C@H]4n2cnc4c(N)ncnc42)O[C@H]3n2cnc3c(=O)[nH]c(N)nc32)O[C@H]1n1ccc(N)nc1=O (stereo in doubt) [RG4326, ASGSCMAFCFUFUMUSGS]",1.63,2.58,2.73,2.29,2.91,3.19,463 Log2FC * h,0.351 Log2FC * g/ug,1,5.3,10.4,14.1,13.9,11.7,13.1,2.65,2.63
"ASCSAMAFUFGFCMASCS [RG5124, reference compound]",–,–,–,–,–,–,–,–,1,1.2,2.6,1,0.7,1,–,–,–
